Measured values from patent US20250388565A1, “ESTROGEN RECEPTOR ALPHA DEGRADERS AND METHODS OF USE THEREOF” (Relay Therapeutics, Inc., priority 2022, published 2025).

Target: T1, ERα protein (HiBiT-tagged) in ESR1_HiBiT KI MCF7 cells (Homo sapiens, UniProt P03372)
T1 sequence (P03372 1-595): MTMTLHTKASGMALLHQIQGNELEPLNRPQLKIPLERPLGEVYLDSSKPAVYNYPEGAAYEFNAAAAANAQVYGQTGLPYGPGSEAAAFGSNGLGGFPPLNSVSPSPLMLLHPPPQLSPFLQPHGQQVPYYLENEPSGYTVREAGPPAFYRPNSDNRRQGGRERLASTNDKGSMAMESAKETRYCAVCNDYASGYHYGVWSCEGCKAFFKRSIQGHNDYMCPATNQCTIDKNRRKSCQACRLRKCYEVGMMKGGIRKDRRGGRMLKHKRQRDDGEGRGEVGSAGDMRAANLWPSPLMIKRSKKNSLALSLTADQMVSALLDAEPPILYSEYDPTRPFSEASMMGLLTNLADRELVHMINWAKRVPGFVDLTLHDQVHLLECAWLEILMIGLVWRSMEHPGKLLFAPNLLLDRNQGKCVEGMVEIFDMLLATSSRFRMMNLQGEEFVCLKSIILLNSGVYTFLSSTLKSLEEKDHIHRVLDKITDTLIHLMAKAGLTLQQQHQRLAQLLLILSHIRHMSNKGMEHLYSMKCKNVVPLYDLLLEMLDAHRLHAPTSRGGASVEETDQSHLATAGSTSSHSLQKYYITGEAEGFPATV
Test: Nano Glo HiBiT Lytic Degradation Assay
Format: cell-based
Settings: 6 hours with compound, 14-point dose response 1:3, bell-shape curve fit, half-maximal effect of first Hill model, read-out: MCF7 ESR1 HiBiT - (DC50)
Description: Selected compounds of the present disclosure were tested in a Nano Glo HiBiT Lytic Degradation Assay to measure the level of ERα protein degradation in MCF7 cells.
Cell culture: ESR1_HiBiT KI MCF7 cells were maintained in growth media without antibiotics. Cells were maintained in exponential growth phase, between 40% and 90% confluency.
Cell seeding: Cells were counted using a Vi-Cell and seeded in a 384-well flat-bottom microplate (cell culture-treated) at 4000 cells/well in 25 μL of growth medium using a BioTek MultiFlo Multimode Dispenser. Plates were incubated for 24 h at 37° C., 5% CO2, >95% relative humidity.
Compound preparation: Compounds were screened as 14-point dose response curves 1:3 dilutions. DMSO is used as the vehicle control and all wells were normalized to the same final DMSO concentration (0.1% v/v). Compounds were dosed using an Echo Acoustic Liquid Handler, 25 nL of 1000× (10 mM top concentration) DMSO stock/well. Cells were incubated with compounds for 6 hours at 37° C., 5% CO2, >95% relative humidity. Each compound was run in duplicate.
Nano Glo HiBiT Lytic Degradation Assay: HiBiT-tagged ERα protein levels were quantified using a Nano Glo HiBiT Lytic Degradation Assay following the manufacturer's protocol. Briefly, the Nano-Glo® HiBiT Lytic Reagent was prepared by diluting the LgBiT Protein reagent (1:100) and the Nano-Glo® HiBiT Lytic Substrate (1:50) into Nano-Glo® HiBiT Lytic Buffer at room temperature. The 384-well microplate were equilibrated to room temperature and 25 μL of Nano-Glo® HiBiT Lytic Reagent was added to each well. Samples were mixed by placing the 384-well microplate on an orbital shaker for 10 minutes. Luminescence was measured using an EnVision 2105 Multimode Plate Reader.
Data processing and analysis: Background signal (wells containing growth medium without cells) was subtracted from individual relative light units (RLU) values and the resulting values were normalized to the DMSO control well values. Dose responses were analyzed with Genedata Screener® using a bell-shape curve fit and the concentrations corresponding to the half-maximal effect of the first Hill model were used as DC50 values.

DC50 [nM]	Compound
≥ 10000	C[C@@H]1OC2(CCCCC2)[C@@H](c2ccc(N3CCC(CN4CCN(c5ccc6c(c5)CN([C@H]5CCC(=O)NC5=O)C6=O)CC4)CC3)cc2)c2ccc(O)cc21 (single isomer, unassigned) [Compound I-270]
4	O=C1CC[C@H](N2Cc3cc(N4CCN(CC5CCN(c6ccc([C@@H]7c8ccc(O)cc8CO[C@]78CCCc7ccccc78)cc6)CC5)CC4)ccc3C2=O)C(=O)N1 (single isomer, unassigned) [Compound I-272]
6	O=C1CC[C@H](N2Cc3cc(N4CCN(CC5CCN(c6ccc([C@H]7c8ccc(O)cc8CO[C@@]78CCCc7ccccc78)cc6)CC5)CC4)ccc3C2=O)C(=O)N1 (single isomer, unassigned) [Compound I-273]
0.25	Cn1c(=O)n([C@H]2CCC(=O)NC2=O)c2ccc(N3CCN(CC4CCN(c5ccc([C@@H]6c7ccc(O)cc7CC[C@@H]6c6ccccc6)cc5)CC4)CC3)cc21 (single isomer, unassigned) [Compound I-275]
0.5	Cn1c(=O)n([C@@H]2CCC(=O)NC2=O)c2ccc(N3CCN(CC4CCN(c5ccc([C@@H]6c7ccc(O)cc7CC[C@@H]6c6ccccc6)cc5)CC4)CC3)cc21 (single isomer, unassigned) [Compound I-276]
0.3	Cn1c(=O)n([C@H]2CCC(=O)NC2=O)c2ccc(N3CCN(CC4CCN(c5ccc([C@@H]6c7ccc(O)cc7C(F)(F)C[C@@H]6c6ccccc6)cc5)CC4)CC3)cc21 (single isomer, unassigned) [Compound I-277]
12.1	Cn1c(=O)n([C@@H]2CCC(=O)NC2=O)c2ccc(N3CCN(CC4CCN(c5ccc([C@@H]6c7ccc(O)cc7C(F)(F)C[C@@H]6c6ccccc6)cc5)CC4)CC3)cc21 (single isomer, unassigned) [Compound I-278]
16.5	O=C1CCC(c2ccc(N3CC[C@]4(CCN(CC5CCN(c6ccc([C@@H]7c8ccc(O)cc8CC[C@@H]7c7ccccc7)cc6)CC5)C4)C3)cc2)C(=O)N1 (single isomer, unassigned) [Compound I-279]
0.76	O=C1CCC(c2ccc(N3CC[C@@]4(CCN(CC5CCN(c6ccc([C@@H]7c8ccc(O)cc8CC[C@@H]7c7ccccc7)cc6)CC5)C4)C3)cc2)C(=O)N1 (single isomer, unassigned) [Compound I-280]
0.51	O=C1CCC(c2ccc(N3CC[C@]4(CCN(CC5CCN(c6ccc([C@@H]7c8ccc(O)cc8C(F)(F)C[C@@H]7c7ccccc7)cc6)CC5)C4)C3)cc2)C(=O)N1 (single isomer, unassigned) [Compound I-281]
24.5	O=C1CCC(c2ccc(N3CCC4(CCN(CC5CCN(c6ccc([C@@H]7c8ccc(O)cc8C(F)(F)C[C@@H]7c7ccccc7)cc6)CC5)C4)C3)cc2)C(=O)N1 (single isomer, unassigned) [Compound I-282, 3-(4-((R*)-7-((1-(4-((1R,2S)-4,4-difluoro-6-hydroxy-2-phenyl-1,2,3,4-tetrahydronaphthalen-1-yl)phenyl)piperidin-4-yl)methyl)-2,7-diazaspiro[4.4]nonan-2-yl)phenyl)piperidine-2,6-dione]
5	O=C1CC[C@H](c2ccc(N3CCC4(CCN(CC5CCN(c6ccc([C@@H]7c8ccc(O)cc8CC[C@@H]7c7ccccc7)cc6)CC5)C4)CC3)cc2)C(=O)N1 (single isomer, unassigned) [Compound I-283]
≥ 10000	O=C1CC[C@@H](c2ccc(N3CCC4(CCN(CC5CCN(c6ccc([C@@H]7c8ccc(O)cc8CC[C@@H]7c7ccccc7)cc6)CC5)C4)CC3)cc2)C(=O)N1 (single isomer, unassigned) [Compound I-284]
0.27	O=C1CC[C@H](c2ccc(N3CCC4(CCN(CC5CCN(c6ccc([C@@H]7c8ccc(O)cc8C(F)(F)C[C@@H]7c7ccccc7)cc6)CC5)C4)CC3)cc2)C(=O)N1 (single isomer, unassigned) [Compound I-285]
91.1	O=C1CC[C@@H](c2ccc(N3CCC4(CCN(CC5CCN(c6ccc([C@@H]7c8ccc(O)cc8C(F)(F)C[C@@H]7c7ccccc7)cc6)CC5)C4)CC3)cc2)C(=O)N1 (single isomer, unassigned) [Compound I-286]
≥ 10000	O=C1CCN(c2ccc(N3CC[C@]4(CCN(CC5CCN(c6ccc([C@@H]7c8ccc(O)cc8CC[C@@H]7c7ccccc7)cc6)CC5)C4)C3)cc2)C(=O)N1 (single isomer, unassigned) [Compound I-287]
≥ 10000	O=C1CCN(c2ccc(N3CC[C@@]4(CCN(CC5CCN(c6ccc([C@@H]7c8ccc(O)cc8CC[C@@H]7c7ccccc7)cc6)CC5)C4)C3)cc2)C(=O)N1 (single isomer, unassigned) [Compound I-288]
≥ 10000	O=C1CCN(c2ccc(N3CCC4(CCN(CC5CCN(c6ccc([C@@H]7c8ccc(O)cc8C(F)(F)C[C@@H]7c7ccccc7)cc6)CC5)C4)C3)cc2)C(=O)N1 (single isomer, unassigned) [Compound I-289]
0.22	O=C1CCN(c2ccc(N3CC[C@@]4(CCN(CC5CCN(c6ccc([C@@H]7c8ccc(O)cc8C(F)(F)C[C@@H]7c7ccccc7)cc6)CC5)C4)C3)cc2)C(=O)N1 (single isomer, unassigned) [Compound I-290]
0.28	Cc1cc(N2CCC3(CCN(CC4CCN(c5ccc([C@@H]6c7ccc(O)cc7C(F)(F)C[C@@H]6c6ccccc6)cc5)CC4)C3)CC2)ccc1N1CCC(=O)NC1=O (single isomer, unassigned) [Compound I-294]
0.84	Cn1nc([C@H]2CCC(=O)NC2=O)c2ccc(N3CCN(CC4CCN(c5ccc([C@@H]6c7ccc(O)cc7CC[C@@H]6c6ccccc6)cc5)CC4)CC3)cc21 (single isomer, unassigned) [Compound I-295]
1	Cn1nc([C@@H]2CCC(=O)NC2=O)c2ccc(N3CCN(CC4CCN(c5ccc([C@@H]6c7ccc(O)cc7CC[C@@H]6c6ccccc6)cc5)CC4)CC3)cc21 (single isomer, unassigned) [Compound I-296]
0.74	Cn1nc(C2CCC(=O)NC2=O)c2ccc(N3CCN(CC4CCN(c5ccc([C@@H]6c7ccc(O)cc7C(F)(F)C[C@@H]6c6ccccc6)cc5)CC4)CC3)cc21 (single isomer, unassigned) [Compound I-297]
1	Cn1nc(C2CCC(=O)NC2=O)c2ccc(N3CCN(CC4CCN(c5ccc([C@@H]6c7ccc(O)cc7C(F)(F)C[C@@H]6c6ccccc6)cc5)CC4)CC3)cc21 (single isomer, unassigned) [Compound I-298]
0.006	Cc1ccc([C@H]2CC(F)(F)c3cc(O)ccc3[C@H]2c2ccc(N3CCC(CN4CCN(c5ccc6c(c5)CN([C@H]5CCC(=O)NC5=O)C6=O)CC4)CC3)cc2)cc1 (single isomer, unassigned) [Compound I-320, (S)-3-(5-(4-((1-(4-((1*S, 2*R)-4,4-difluoro-6-hydroxy-2-(p-tolyl)-1,2,3,4-tetrahydronaphthalen-1-yl)phenyl)piperidin-4-yl)methyl)piperazin-1-yl)-1-oxoisoindolin-2-yl)piperidine-2,6-dione]
0.56	Cc1cc(F)c([C@H]2CC(F)(F)c3cc(O)ccc3[C@H]2c2ccc(N3CCC(CN4CCN(c5ccc6c(c5)CN([C@H]5CCC(=O)NC5=O)C6=O)CC4)CC3)cc2)cc1F (single isomer, unassigned) [Compound I-324]
11	Cc1cc(F)c([C@@H]2CC(F)(F)c3cc(O)ccc3[C@@H]2c2ccc(N3CCC(CN4CCN(c5ccc6c(c5)CN([C@H]5CCC(=O)NC5=O)C6=O)CC4)CC3)cc2)cc1F (single isomer, unassigned) [Compound I-325]
≥ 10000	C[C@H]1C[C@@H](c2ccccc2)[C@@H](c2ccc(N3CCC(CN4CCN(c5ccc6c(c5)CN([C@H]5CCC(=O)NC5=O)C6=O)CC4)CC3)cc2)c2ccc(O)cc21 (single isomer, unassigned) [Compound I-331]
